Columns and labels:
human JAK1 = biological target: T1, human JAK1 (Homo sapiens, UniProt P23458); experiment: Alphascreen tyrosine kinase enzyme assay, JAK1 kinase domain; format: biochemical; conditions: read-out: JAK1 IC50_nM
T1 construct: The kinase domain of human JAK1 was amplified; GST (N); made in house; host or cells: Sf9 insect cells (baculovirus)
Method: For screening purposes, compounds (in 100% DMSO) were warmed at 37 degrees for at least 20 minutes before use. A […] stock was initially made in assay buffer, where the final concentration of DMSO was 0.3%. The stocks were then diluted in 384 well Optiplates (Packard) where the final concentration of the compound was […].
The kinase domain of human JAK1 was amplified from U937mRNA using the polymerase chain reaction with the following primers: […]
The JAK1 PCR products were cloned into the pDest20 destination vector (Gibco). The JAK1 plasmid was then transformed into competent DH10Bac cells (Gibco), and the recombinant baculovirus was prepared via Sf9 insect cell transfection.
Baculovirus preparations from each of the constructs were infected into either one or five liters of Sf9 cells (Invitrogen) grown in SF-900 medium (Invitrogen) to a cell density of approximately 1-2×10^6 cells/ml. Cells were infected with virus at a MOI of 0.8-3.0. Cells were harvested and lysed. Tyrosine kinase domains were purified by affinity chromatography on a glutathione-agarose column (Scientifix Pty. Ltd. catalog #: GSH-200).
Kinase assays were performed in 384 well Optiplates (Packard) using an Alphascreen Protein Tyrosine Kinase PY100 detection kit The compounds were pre-incubated with affinity purified PTK domain in the presence of phosphotyrosine assay buffer (10 mM HEPES, pH 7.5, 100 mM MgCl2, 25 mM NaCl, […] and 0.1% Tween 20) for 20 minutes. The compounds were then incubated with substrate in the presence of ATP. The substrate used was susbtrate-1 with the sequence biotin-EGPWLEEEEEAYGWMDF-NH2 [SEQ. ID. NO. 13] (final concentration […]). For HCK 80 μm ATP was used and incubated for 60 minutes. Alphascreen phosphotyrosine acceptor beads followed by streptavidin donor beads at a concentration of 1/100 in stop buffer were added to each well under subdued light and incubated for 2-3 hours., The Alphascreen plates were read on a Packard Fusion Alpha instrument.

human JAK2 = biological target: T2, human JAK2 (Homo sapiens, UniProt O60674); experiment: Alphascreen tyrosine kinase enzyme assay, JAK2 kinase domain; format: biochemical; conditions: read-out: JAK2 IC50_nM
T2 construct: The kinase domain of human JAK2 was amplified; GST (N); made in house; host or cells: Sf9 insect cells (baculovirus)
Summary of the method: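 JAK2 kinase domain expressed in baculovirus/Sf9 and glutathione-affinity purified. Compounds (final […]) pre-incubated 20 min with enzyme in 10 mM HEPES pH 7.5, MgCl2, NaCl, vanadate, 0.1% Tween 20.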

[1] = biological target: T3, BaF3 TELJAK2 cells (BafT_J2) (Homo sapiens, UniProt O60674); experiment: Cellular screening, BaF3 TEL:JAK2 cells, Alamar Blue; format: cell-based; conditions: 40 hr, read-out: BafT_J2 IC50_nM
T3 construct: fused on or other part: TEL (ETV6) N-terminal part, coding nucleotides 1-487, serves as the oligomerising partner; It is fused through a Sal I site to the JAK2 kinase domain and expressed from pTRE2 in BaF3 cells bearing pTET-off; P41212 (Transcription factor ETV6)
Summary of the method: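 Tet-off BaF3 cells carrying a TEL (nt 1-487)–JAK2 kinase-domain fusion, grown factor-independently in DMEM with 10% Tet-approved FBS without WEHI 3B medium. Compounds were diluted to 20 μM in screening plates, and cells (50,000–200,000 cell/mL at 1.1×) were incubated 40 hr at 37 °C, 5% CO2. Alamar Blue was then added for 4-6 hours; read at 544 nm.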

human JAK3 = biological target: T4, human JAK3 (Homo sapiens, UniProt P52333); experiment: Alphascreen tyrosine kinase enzyme assay, JAK3 kinase domain; format: biochemical; conditions: read-out: JAK3 IC50_nM
T4 construct: The kinase domain of human JAK3 was amplified; GST (N); made in house; host or cells: Sf9 insect cells (baculovirus)
Summary of the method: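 GST-affinity-purified human JAK3 kinase domain (baculovirus/Sf9) was pre-incubated 20 min with compound ([…]) in HEPES pH 7.5 buffer with MgCl2, vanadate and Tween 20. Biotinylated peptide substrate ([…]) and ATP were then added; phosphotyrosine was detected by AlphaScreen PY100 acceptor and streptavidin donor beads after 2–3 h.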

T3 sequence (O60674 whole entry, change not shown, the tested form may be a part): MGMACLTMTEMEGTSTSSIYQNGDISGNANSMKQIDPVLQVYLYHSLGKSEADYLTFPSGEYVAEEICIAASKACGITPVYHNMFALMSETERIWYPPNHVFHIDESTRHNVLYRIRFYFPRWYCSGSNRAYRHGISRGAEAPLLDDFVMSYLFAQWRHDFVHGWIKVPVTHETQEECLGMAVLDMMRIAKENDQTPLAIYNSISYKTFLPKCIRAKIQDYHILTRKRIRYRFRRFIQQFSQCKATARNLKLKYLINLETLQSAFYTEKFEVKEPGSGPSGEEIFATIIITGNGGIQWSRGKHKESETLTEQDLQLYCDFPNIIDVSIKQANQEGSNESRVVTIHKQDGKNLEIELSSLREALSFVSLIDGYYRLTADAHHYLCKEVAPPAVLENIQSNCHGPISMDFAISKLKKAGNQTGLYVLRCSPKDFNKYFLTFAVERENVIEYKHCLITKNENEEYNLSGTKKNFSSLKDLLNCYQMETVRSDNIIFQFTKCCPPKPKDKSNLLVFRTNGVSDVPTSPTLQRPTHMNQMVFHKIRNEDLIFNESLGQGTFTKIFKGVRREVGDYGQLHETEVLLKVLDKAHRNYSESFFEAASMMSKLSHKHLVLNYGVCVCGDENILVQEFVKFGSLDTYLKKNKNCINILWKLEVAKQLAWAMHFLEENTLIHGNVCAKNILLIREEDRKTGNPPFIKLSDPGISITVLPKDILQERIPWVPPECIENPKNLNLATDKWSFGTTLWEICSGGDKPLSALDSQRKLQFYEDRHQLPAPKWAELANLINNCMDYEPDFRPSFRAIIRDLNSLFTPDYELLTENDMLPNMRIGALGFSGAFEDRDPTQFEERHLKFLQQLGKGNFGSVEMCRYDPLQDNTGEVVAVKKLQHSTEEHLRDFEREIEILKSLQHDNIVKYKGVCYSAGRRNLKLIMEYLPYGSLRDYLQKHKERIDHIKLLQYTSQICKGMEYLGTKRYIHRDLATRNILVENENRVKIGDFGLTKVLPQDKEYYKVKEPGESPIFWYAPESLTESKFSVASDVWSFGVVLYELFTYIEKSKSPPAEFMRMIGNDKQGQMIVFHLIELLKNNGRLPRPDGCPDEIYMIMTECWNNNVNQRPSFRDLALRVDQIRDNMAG
T4 sequence (P52333 822-1111 limits assumed): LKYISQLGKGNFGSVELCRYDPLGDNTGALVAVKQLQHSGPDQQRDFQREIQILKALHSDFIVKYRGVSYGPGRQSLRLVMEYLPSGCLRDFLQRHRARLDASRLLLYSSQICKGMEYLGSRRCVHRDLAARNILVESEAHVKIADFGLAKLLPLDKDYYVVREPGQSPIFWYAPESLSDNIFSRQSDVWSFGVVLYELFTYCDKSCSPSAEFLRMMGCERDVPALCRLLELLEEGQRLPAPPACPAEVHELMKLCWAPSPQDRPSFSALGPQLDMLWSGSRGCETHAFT
T2 sequence (O60674 849-1124 limits assumed): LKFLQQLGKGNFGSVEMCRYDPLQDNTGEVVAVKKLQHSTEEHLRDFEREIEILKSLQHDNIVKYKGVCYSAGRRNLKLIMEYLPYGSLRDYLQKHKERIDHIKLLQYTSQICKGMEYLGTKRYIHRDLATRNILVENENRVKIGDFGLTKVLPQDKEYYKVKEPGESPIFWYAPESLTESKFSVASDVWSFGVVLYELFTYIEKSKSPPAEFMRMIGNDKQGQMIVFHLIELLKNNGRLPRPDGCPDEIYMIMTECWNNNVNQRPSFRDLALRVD
T1 sequence (P23458 875-1153 limits assumed): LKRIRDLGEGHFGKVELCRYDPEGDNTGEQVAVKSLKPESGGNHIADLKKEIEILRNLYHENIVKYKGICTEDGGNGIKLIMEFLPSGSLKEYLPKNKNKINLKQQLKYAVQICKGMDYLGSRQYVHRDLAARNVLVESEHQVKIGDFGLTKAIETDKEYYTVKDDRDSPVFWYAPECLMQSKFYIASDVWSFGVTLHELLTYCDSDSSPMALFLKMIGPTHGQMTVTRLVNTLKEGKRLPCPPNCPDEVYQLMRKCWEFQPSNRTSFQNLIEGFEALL

SMILES | IC50 (human JAK1) [µM] | IC50 (human JAK2) [µM] | GI50 [1] [µM] | IC50 (human JAK3) [µM]
C=CC(=O)NCc1cccc(Sc2ccnc(Nc3ccc(N4CCOCC4)cc3)n2)c1 [Compound 112, N-(3-(2-(4-morpholinophenylamino)pyrimidin-4-ylthio)benzyl)acrylamide] | > 1 | > 1 | < 20 | < 0.1
C=CC(=O)Nc1ccc(Sc2ccnc(Nc3ccc(N4CCOCC4)cc3)n2)cc1OC [Compound 123, N-(2-methoxy-4-(2-(4-morpholinophenylao)pyrimidin-4-ylthio)phenyl)acrylamide] | > 1 | > 1 | < 5 | < 0.1
CCOC(=O)/C=C/C(=O)Nc1ccc(Sc2nc(Nc3ccc(N4CCOCC4)cc3)ncc2C)cc1 [Compound 385, (E)-ethyl 4-(4-(5-methyl-2-(4-morpholinophenylao)pyrimidin-4-ylthio)phenylao)-4-oxobut-2-enoate] | > 1 | > 1 | > 20 | < 0.1
C=CC(=O)Nc1ccc(Sc2nc(Nc3ccc(N4CCN(C)CC4)cc3)ncc2C)cc1 [Compound 239, N-(4-(5-methyl-2-(4-(4-methylpiperazin-1-yl)phenylao)pyrimidin-4-ylthio)phenyl)acrylamide] | < 0.5 | < 1 | < 5 | < 0.1
C=CC(=O)Nc1cccc(Sc2ccnc(Nc3ccc(N4CCOCC4)cc3)n2)c1 [Compound 23, N-(3-(2-(4-morpholinophenylamino)pyrimidin-4-ylthio)phenyl)acrylamide] | > 1 | > 1 | < 20 | < 0.1
C=CC(=O)Nc1ccc(Sc2nc(Nc3ccc(N4CCCC(O)C4)cc3)ncc2C)cc1 (centres unmarked) [Compound 299, N-(4-(2-(4-(3-hydroxypiperidin-1-yl)phenylao)-5-methylpyrimidin-4-ylthio)phenyl)acrylamide] | > 1 | > 1 | < 20 | < 0.1
C=CC(=O)Nc1cccc(Nc2nccc(Sc3ccccn3)n2)c1 [Compound 2, N-(3-(4-(pyridin-2-ylthio)pyrimidin-2-ylamino)phenyl)acrylamide] | > 1 | > 1 | < 5 | < 0.1
C=CC(=O)Nc1ccc(Sc2nc(Nc3cccc(N4CCOCC4)c3)ncc2F)cc1 [Compound 267, N-(4-(5-fluoro-2-(3-morpholinophenylao)pyrimidin-4-ylthio)phenyl)acrylamide] | > 1 | > 1 | < 5 | < 0.1
C=CC(=O)N(C)c1ccc(Sc2nc(Nc3ccc(N4CCOCC4)cc3)ncc2C)cc1 [Compound 173, N-methyl-N-(4-(5-methyl-2-(4-morpholinophenylao)pyrimidin-4-ylthio)phenyl)acrylamide] | < 0.5 | < 0.5 | < 20 | < 0.1
Cc1cnc(Nc2ccc(N3CCOCC3)cc2)nc1Sc1ccc(N2C(=O)C=C(Br)C2=O)cc1 [Compound 382, 3-bromo-1-(4-(5-methyl-2-(4-morpholinophenylao)pyrimidin-4-ylthio)phenyl)-1H-pyrrole-2,5-dione] | > 1 | > 1 | < 20 | < 0.1
Cc1cnc(Nc2ccc(N3CCOCC3)cc2)nc1Sc1ccc(NC(=O)CSCC(=O)O)cc1 [Compound 230, 2-(2-(4-(5-methyl-2-(4-morpholinophenylao)pyrimidin-4-ylthio)phenylao)-2-oxoethylthio)acetic acid] | < 1 | < 0.5 | > 20 | < 0.1
C=CC(=O)Nc1ccc(Sc2nc(Nc3ccc(OC)c(NS(C)(=O)=O)c3)ncc2C)cc1 [Compound 293, N-(4-(2-(4-methoxy-3-(methylsulfonamido)phenylao)-5-methylpyrimidin-4-ylthio)phenyl)acrylamide] | > 1 | > 1 | < 5 | < 0.1
OCc1ccc(Sc2ccnc(Nc3ccc(N4CCOCC4)cc3)n2)cc1 [Compound 67, (4-(2-(4-morpholinophenylao)pyrimidin-4-ylthio)phenyl)methanol] | < 1 | < 0.5 | < 20 | < 0.5
N#CCNCc1cccc(Sc2ccnc(Nc3ccc(N4CCOCC4)cc3)n2)c1 [Compound 68, 2-(3-(2-(4-morpholinophenylao)pyrimidin-4-ylthio)benzylao)acetonitrile] | < 1 | < 0.1 | < 20 | < 0.5
NCc1cccc(Sc2ccnc(Nc3ccc(N4CCOCC4)cc3)n2)c1 [Compound 75, 4-(3-(aomethyl)phenylthio)-N-(4-morpholinophenyl)pyrimidin-2-ae] | < 0.5 | < 1 | < 20 | < 0.5
OCc1cccc(Sc2ccnc(Nc3ccc(N4CCOCC4)cc3)n2)c1 [Compound 62, (3-(2-(4-Morpholinophenylamino)pyrimidin-4-ylthio)phenyl)methanol] | > 1 | < 0.5 | < 20 | < 0.5
C=CC(=O)Nc1ccc(Sc2nc(Nc3ccc(N4CCOCC4)cc3)ncc2Br)cc1 [Compound 306, N-(4-(5-bromo-2-(4-morpholinophenylao)pyrimidin-4-ylthio)phenyl)acrylamide] | > 1 | > 1 | > 20 | < 0.1
C=CC(=O)Nc1ccc(Sc2nc(Nc3ccc(OCCCN(CC)CC)cc3)ncc2C)cc1 [Compound 291, N-(4-(2-(4-(3-(diethylao)propoxy)phenylao)-5-methylpyrimidin-4-ylthio)phenyl)acrylamide] | > 1 | > 1 | < 5 | < 0.1
C=CC(=O)Nc1ccc(Sc2nc(Nc3ccc(N4CCOCC4)cc3)ncc2C)c(C)c1 [Compound 163, N-(3-methyl-4-(5-methyl-2-(4-morpholinophenylao)pyrimidin-4-ylthio)phenyl)acrylamide] | > 1 | > 1 | > 20 | < 0.1
Cc1cnc(Nc2ccc(N3CCOCC3)cc2)nc1Sc1ccc(N2C(=O)CSCC2=O)cc1 [Compound 231, 4-(4-(5-methyl-2-(4-morpholinophenylao)pyrimidin-4-ylthio)phenyl)thiomorpholine-3,5-dione] | > 1 | > 1 | < 20 | < 0.1
C=CC(=O)N(C)c1ccc(Sc2nc(Nc3ccc(N4CCOCC4)cc3)ncc2Br)cc1 [Compound 261, N-(4-(5-bromo-2-(4-morpholinophenylao)pyrimidin-4-ylthio)phenyl)-N-methylacrylamide] | > 1 | < 0.5 | > 20 | < 0.1
Cc1cc(N)ccc1Sc1nc(Nc2ccc(N3CCOCC3)cc2)ncc1C [Compound 162, 4-(4-ao-2-methylphenylthio)-5-methyl-N-(4-morpholinophenyl)pyrimidin-2-ae] | < 0.5 | < 1 | < 20 | < 0.1
C=CC(=O)NCc1ccc(Sc2ccnc(Nc3ccc(N4CCOCC4)cc3)n2)cc1 [Compound 111, N-(4-(2-(4-morpholinophenylamino)pyrimidin-4-ylthio)benzyl)acrylamide] | > 1 | > 1 | < 20 | < 0.1

Source: patent US8846704B2, “Thiopyrimidine-based compounds and uses thereof” (YM Biosciences Austraila Pty Ltd, priority 2007, dated 2014)
